Reference: ChEMBL document CHEMBL4715849, “Recent Progress in the Discovery of Antifungal Agents Targeting the Cell Wall” (J Med Chem, 2020)
In brackets after ≈: the same amount, converted by molar mass.

How the values were obtained:
[1] = test system: Meyerozyma guilliermondii; assay: Antifungal activity against Candida guilliermondii CLY308 incubated for 24 hrs by liquid microdilution assay; type: functional
Aspergillus flavus = assay: Antifungal activity against Aspergillus flavus MF383 incubated for 24 hrs by liquid microdilution assay; type: functional
Cryptococcus neoformans [2] = assay: Antifungal activity against Cryptococcus neoformans MY2062 incubated for 24 hrs by liquid microdilution assay; type: functional
Candida albicans [3] = assay: Antifungal activity against Candida albicans MY1055 incubated for 24 hrs by liquid microdilution assay; type: functional
Nakaseomyces glabratus [4] = assay: Antifungal activity against Candida glabrata MY1381 incubated for 24 hrs by liquid microdilution assay; type: functional
[5] = Inhibition of Candida albicans MY1055 1,3-beta-D-glucan synthase assessed as reduction in glucan synthesis by measuring decrease in incorporation of [14C]glucose preincubated for 30 mins followed by pulse-labelling with [U-14C]D-glucose for 30 mins by autoradiography
Candida albicans [6] = assay: Antifungal activity against Candida albicans; type: functional
Candida albicans [7] = assay: Antifungal activity against Candida albicans MY2301 incubated for 24 hrs by liquid microdilution assay; type: functional
[8] = test system: Meyerozyma guilliermondii; assay: Antifungal activity against Candida guilliermondii CLY346 incubated for 24 hrs by liquid microdilution assay; type: functional
Nakaseomyces glabratus [9] = assay: Antifungal activity against Candida glabrata CLY574 incubated for 24 hrs by liquid microdilution assay; type: functional
Cryptococcus neoformans [10] = assay: Antifungal activity against Cryptococcus neoformans MY2061 incubated for 24 hrs by liquid microdilution assay; type: functional
Aspergillus fumigatus = assay: Antifungal activity against Aspergillus fumigatus MF5668 assessed as inhibition of normal hyphal growth; type: functional; settings: time 24 hrs, read-out: MEC

With `CC(=O)O[C@@H]1C[C@]23C4=CC[C@@]5(C)[C@H](C(=O)O)[C@@](C)([C@H](C)C(C)C)CC[C@]5(C)[C@H]4CC[C@H]2[C@@](C)(COC3O)[C@H]1O[C@@H]1O[C@H](CO)[C@@H](O)[C@H](O)[C@H]1O` (some centres not stated) [ENFUMAFUNGIN] the MIC [1] was 1 µg/mL (≈ 1.41 µM), the MIC (Aspergillus flavus) was ≤ 0.03 µg/mL and the MIC (Cryptococcus neoformans [2]) was > 64 µg/mL. The MIC (Candida albicans [3]) was 0.25 µg/mL (≈ 0.353 µM), the MIC (Nakaseomyces glabratus [4]) was 1 µg/mL (≈ 1.41 µM) and the IC50 [5] was 0.05 µg/mL (≈ 0.0705 µM). It also gave an MIC (Candida albicans [6]) of 0.2 µg/mL (≈ 0.282 µM), an MIC (Candida albicans [7]) of 0.5 µg/mL (≈ 0.705 µM) and an MIC [8] of 2 µg/mL (≈ 2.82 µM). The MIC (Nakaseomyces glabratus [9]) was 1 µg/mL (≈ 1.41 µM), the MIC (Cryptococcus neoformans [10]) was > 64 µg/mL and the minimal effective concentration (Aspergillus fumigatus) was ≤ 0.03 µg/mL.
